Source: PMC5504357, “Antifungal Potential of Copper(II), Manganese(II) and Silver(I) 1,10-Phenanthroline Chelates Against Multidrug-Resistant Fungal Species Forming the Candida haemulonii Complex: Impact on the Planktonic and Biofilm Lifestyles” (Frontiers in Microbiology, 2017)

Columns and labels:
Candida duobushaemulonii [1] = assay: Planktonic growth, broth microdilution (CLSI M27-A3), MIC; assay type: cell-based; conditions: for GM-MIC: geometric mean of three C. duobushaemulonii isolates; for MIC: planktonic, 48 h, 37°C
Text: (§1) Three clinical isolates of each species that form the C. haemulonii complex were used in this study: C. haemulonii (LIPCh4 from finger nail, LIPCh7 from toe nail, and LIPCh12 from blood), C. duobushaemulonii (LIPCh1 from finger nail, LIPCh6 from toe nail, and LIPCh8 from blood) and C. haemulonii var. vulnera (LIPCh5 from toe nail, LIPCh9 from urine, and LIPCh11 from blood) (Ramos et al., [2015]). The fungal isolates were identified by the automatized system VITEK® 2 and then characterized by ITS1-5.8S-ITS2 gene sequencing (Ramos et al., [2015]). Fungal cells were cultured in Sabouraud-dextrose medium under constant agitation (130 rpm) for 48 h at 37°C. Human lung adenocarcinoma A549 cells were maintained in culture flasks containing DMEM medium supplemented with 10% fetal bovine serum at 37°C in an atmosphere of 5% CO2.
(§2) Susceptibility profile assays were performed in accordance with the broth microdilution protocol described in the document M27-A3 published by the Clinical and Laboratory Standards Institutes (CLSI, [2008]). Samples of the test chelates were dissolved in DMSO (500 μL) and then serially diluted in a 96-well plate containing RPMI 1640 (Sigma-Aldrich, USA) to give the concentration range of 0.0625-32 mg/L. Aqueous solutions of the metal-free phen ligand and the simple metal salts, MnCl2, CuCl2, and AgNO3, were also screened over the same concentration range. Caspofungin (Sigma-Aldrich) was used as a classical antifungal agent able to block the growth of all clinical isolates of C. haemulonii species as previously reported by our research group (Ramos et al., [2015]). Water dilutions containing DMSO concentrations corresponding to those used to prepare the drug solutions were assessed in parallel. Untreated and compound-treated fungal cells were incubated at 37°C for 48 h and the minimal inhibitory concentration (MIC) was established as the lowest compound concentration where no cellular growth could be detected by visual inspection in accordance to the CLSI recommendation. The geometric mean of the MIC values (GM-MIC) of each compound against all the fungal isolates was calculated using the software, Microsoft Office Excel 2013.

[2] = system: Candida haemulonii var. vulnera; assay: as above; assay type: cell-based; conditions: for GM-MIC: geometric mean of three C. haemulonii var. vulnera isolates; for MIC: planktonic, 48 h, 37°C
Text: as §1, §2

Candida haemulonii [3] = assay: as above; assay type: cell-based; conditions: for GM-MIC: geometric mean of three C. haemulonii isolates; for MIC: planktonic, 48 h, 37°C
Text: as §1, §2

C. haemulonii complex = assay: Planktonic growth, overall across all nine isolates; assay type: cell-based, Candida haemulonii complex; conditions: for Overall GM-MIC / MIC: geometric mean across all nine strains; for MIC: in μM, read-out: Overall GM-MIC
Text: as §1, §2

A549 cells = assay: Mammalian cell toxicity (MTT assay) and selectivity index; assay type: cell-based, Human; conditions: MTT, 48 h incubation
Text: as §1
The cytotoxicity was evaluated using the MTT [3-(4,5-dimethylthiazol-2-yl)-2,5-diphenyl tetrazolium bromide] (Sigma-Aldrich) assay (Mosmann, [1983]). A549 cells (10^4) were seeded into tissue culture plates (TPP, Switzerland) and cultured for 24 h at 37°C in a 5% CO2 in order to obtain cellular confluence. The wells were then washed twice with DMEM to remove non-adherent cells and the test compounds were added (in concentrations ranging from 0.0313 to 512 μg/mL) to plates containing DMEM, followed by a 48 h incubation period under the same conditions mentioned above. The cellular viability was evaluated by adding MTT to each well and incubating the plates in the dark for 3 h, allowing the viable cells containing active mitochondrial dehydrogenase enzymes to metabolize MTT-tetrazolium salt into purple formazan. The formazan crystals were then dissolved in DMSO (100 μL) and the absorbance (450 nm) measured using a Thermomax Molecular Device microplate reader. The concentration capable of reducing cellular viability by 50% (CC50) was calculated, and the selectivity index (SI) determined using the following equation: A549 CC50/C. haemulonii complex GM-MIC.

Candida duobushaemulonii [4] = assay: Biofilm-growing cells, XTT assay, bMIC; assay type: cell-based; conditions: for GM-bMIC: geometric mean, C. duobushaemulonii isolates; for bMIC: mature biofilm, 48 h, 50% inhibition of metabolic activity
Description: (§3) The effect of the compounds on biofilm-growing cells was determined using the previously described microtiter-based technique (Ramage et al., [2001]). The fungi (10^6 yeast cells) were incubated for 48 h at 37°C in 96-well polystyrene microtiter plates (Corning®, Corning Incorporated, USA) containing Sabouraud-dextrose broth to accommodate biofilm formation. Following biofilm formation, the culture medium was aspirated and non-adherent cells removed by thoroughly washing the wells three times with sterile PBS (0.15 M NaCl, 0.01 M phosphate buffer, pH 7.2). Afterwards, the compounds, at the same concentrations used in the planktonic assays, were added to the wells, and the plates were incubated for further 48 h at 37°C. The metabolic activity was then evaluated using a colorimetric assay that measures the metabolic reduction of 2,3-bis (2-methoxy-4-nitro-5-sulfophenyl)-5-[(phenylamino) carbonyl]-2H-tetrazolium hydroxide (XTT; Sigma-Aldrich) to a water-soluble, brown formazan product (Peeters et al., [2008]). The biofilm MIC (bMIC) for each compound was established as the minimal concentration capable of inhibiting 50% of metabolic activity when compared to compound-free wells (Ziccardi et al., [2015]).

[5] = system: Candida haemulonii var. vulnera; assay: Biofilm-growing cells, XTT assay, bMIC; assay type: cell-based; conditions: for GM-bMIC: geometric mean, C. haemulonii var. vulnera isolates; for bMIC: mature biofilm, 48 h, 50% inhibition of metabolic activity
Description: as §3

Candida haemulonii [6] = assay: Biofilm-growing cells, XTT assay, bMIC; assay type: cell-based; conditions: for GM-bMIC: geometric mean, C. haemulonii isolates, values marked * do not include LIP Ch4 (>512); for bMIC: mature biofilm, 48 h, 50% inhibition of metabolic activity
Description: as §3

[7] = system: Candida haemulonii complex; assay: Biofilm-growing cells, overall across isolates; assay type: cell-based; conditions: for Overall GM-bMIC: geometric mean across strains, values marked * do not include LIP Ch4 (>512)
Description: as §3

Structure (SMILES) | GM-MIC (Candida duobushaemulonii [1]) | MIC (Candida duobushaemulonii [1]; isolate LIP Ch1) | MIC (Candida duobushaemulonii [1]; isolate LIP Ch6) | MIC (Candida duobushaemulonii [1]; isolate LIP Ch8) | GM-MIC [2] | MIC ([2]; isolate LIP Ch5) | MIC ([2]; isolate LIP Ch9) | MIC ([2]; isolate LIP Ch11) | GM-MIC (Candida haemulonii [3]) | MIC (Candida haemulonii [3]; isolate LIP Ch4) | MIC (Candida haemulonii [3]; isolate LIP Ch7) | MIC (Candida haemulonii [3]; isolate LIP Ch12) | Overall GM-MIC (C. haemulonii complex) | MIC (C. haemulonii complex) | A549 (CC50) (A549 cells) | GM-bMIC (Candida duobushaemulonii [4]) | bMIC (Candida duobushaemulonii [4]; isolate LIP Ch1) | bMIC (Candida duobushaemulonii [4]; isolate LIP Ch6) | bMIC (Candida duobushaemulonii [4]; isolate LIP Ch8) | GM-bMIC [5] | also measured
O=[N+]([O-])[O-].[Ag+] [AgNO3, reference compound] | 0.63 µg/mL | 0.5 µg/mL | 0.5 µg/mL | 1 µg/mL | 0.5 µg/mL | 0.5 µg/mL | 0.5 µg/mL | 0.5 µg/mL | 0.79 µg/mL | 1 µg/mL | 0.5 µg/mL | 1 µg/mL | 0.63 µg/mL | 3.93 µM | 16.98 µg/mL | 32 mg/L | 16 mg/L | 16 mg/L | 128 mg/L | 40.32 mg/L | effect on planktonic fungal growth/viability (in words) (C. haemulonii complex; nine clinical isolates, 0.0625-32 mg/L): appreciably deterred fungal growth; bMIC ([5]; isolate LIP Ch5): 128 mg/L; bMIC ([5]; isolate LIP Ch9): 64 mg/L; bMIC ([5]; isolate LIP Ch13): 8 mg/L; GM-bMIC (Candida haemulonii [6]): 16^* mg/L; bMIC (Candida haemulonii [6]; isolate LIP Ch4): >512 mg/L; bMIC (Candida haemulonii [6]; isolate LIP Ch7): 8 mg/L; bMIC (Candida haemulonii [6]; isolate LIP Ch14): 32 mg/L; decrease in activity on going from planktonic to biofilm cells ([7]; biofilm MIC versus planktonic MIC): 43.8 fold; Overall GM-bMIC ([7]; in μM): 172 µM; Overall GM-bMIC [7]: 29.34 mg/L
CCO.O.O.O.O.O.O.O=C([O-])c1cccc(C(=O)[O-])c1.[Cu+2].c1cnc2c(c1)ccc1cccnc12.c1cnc2c(c1)ccc1cccnc12 [compound 3, [Cu(isoph)(phen)2].6H2O.EtOH] | 5.04 µg/mL | 4 µg/mL | 8 µg/mL | 4 µg/mL | 6.35 µg/mL | 4 µg/mL | 8 µg/mL | 8 µg/mL | 10.08 µg/mL | 8 µg/mL | 8 µg/mL | 16 µg/mL | 6.86 µg/mL | 9.21 µM | 0.89 µg/mL | 12.70 mg/L | 32 mg/L | 8 mg/L | 8 mg/L | 12.70 mg/L | bMIC ([5]; isolate LIP Ch5): 16 mg/L; bMIC ([5]; isolate LIP Ch9): 8 mg/L; bMIC ([5]; isolate LIP Ch13): 16 mg/L; GM-bMIC (Candida haemulonii [6]): 20.16 mg/L; bMIC (Candida haemulonii [6]; isolate LIP Ch4): 32 mg/L; bMIC (Candida haemulonii [6]; isolate LIP Ch7): 16 mg/L; bMIC (Candida haemulonii [6]; isolate LIP Ch14): 16 mg/L; Overall GM-bMIC ([7]; in μM): 19.95 µM; Overall GM-bMIC [7]: 14.81 mg/L
CCO.O=C([O-])CCCCCCC(=O)[O-].[Cu+2].[Cu+2].[O-][Cl+3]([O-])([O-])[O-].[O-][Cl+3]([O-])([O-])[O-].c1cnc2c(c1)ccc1cccnc12.c1cnc2c(c1)ccc1cccnc12.c1cnc2c(c1)ccc1cccnc12.c1cnc2c(c1)ccc1cccnc12 [compound 5, [Cu2(oda)(phen)4](ClO4)2.2.76H2O.EtOH] | 8 µg/mL | 8 µg/mL | 8 µg/mL | 8 µg/mL | 10.08 µg/mL | 8 µg/mL | 16 µg/mL | 8 µg/mL | 10.08 µg/mL | 8 µg/mL | 8 µg/mL | 16 µg/mL | 9.33 µg/mL | 7.09 µM | 0.98 µg/mL | 16 mg/L | 32 mg/L | 8 mg/L | 16 mg/L | 16 mg/L | bMIC ([5]; isolate LIP Ch5): 32 mg/L; bMIC ([5]; isolate LIP Ch9): 8 mg/L; bMIC ([5]; isolate LIP Ch13): 16 mg/L; GM-bMIC (Candida haemulonii [6]): 20.16 mg/L; bMIC (Candida haemulonii [6]; isolate LIP Ch4): 32 mg/L; bMIC (Candida haemulonii [6]; isolate LIP Ch7): 16 mg/L; bMIC (Candida haemulonii [6]; isolate LIP Ch14): 16 mg/L; Overall GM-bMIC ([7]; in μM): 13.19 µM; Overall GM-bMIC [7]: 17.28 mg/L
O.O.O.O.O=C1C(=O)c2cccnc2-c2ncccc21.O=C1C(=O)c2cccnc2-c2ncccc21.O=C1C(=O)c2cccnc2-c2ncccc21.[Cu+2].[O-][Cl+3]([O-])([O-])[O-].[O-][Cl+3]([O-])([O-])[O-] [compound 6, [Cu(phendione)3](ClO4)2.4H2O] | 8 µg/mL | 8 µg/mL | 16 µg/mL | 4 µg/mL | 6.35 µg/mL | 4 µg/mL | 8 µg/mL | 8 µg/mL | 16 µg/mL | 16 µg/mL | 16 µg/mL | 16 µg/mL | 9.33 µg/mL | 9.65 µM | 0.68 µg/mL | 12.70 mg/L | 16 mg/L | 16 mg/L | 8 mg/L | 32 mg/L | bMIC ([5]; isolate LIP Ch5): 32 mg/L; bMIC ([5]; isolate LIP Ch9): 32 mg/L; bMIC ([5]; isolate LIP Ch13): 32 mg/L; GM-bMIC (Candida haemulonii [6]): 50.80 mg/L; bMIC (Candida haemulonii [6]; isolate LIP Ch4): 256 mg/L; bMIC (Candida haemulonii [6]; isolate LIP Ch7): 32 mg/L; bMIC (Candida haemulonii [6]; isolate LIP Ch14): 16 mg/L; Overall GM-bMIC ([7]; in μM): 28.42 µM; Overall GM-bMIC [7]: 27.43 mg/L
